# According to patent US20160113932A1, “TREATMENT OF CANCERS USING PI3 KINASE ISOFORM MODULATORS” (INFINITY PHARMACEUTICALS, INC., priority 2013, published 2016):
# “Also recorded” adds a separate entry of the source.
# Assays:
# [1] = system: Human T-cell; assay: Human T-cell proliferation; assay type: cell-based
# [2] = Tissue distribution of radiolabelled Compound 292 in rat; assay type: in vivo
# [3] = In vivo rat micronucleus assay
# [4] = Phase 1 study in healthy subjects: pharmacokinetics (single dose, multiple dose, food effect, DDI); assay type: in vivo, human; conditions: for AUC(0-24): mean (% CV)
# [5] = Phase 1 study in healthy subjects: safety and tolerability; assay type: in vivo
# Method: Serial ECGs were performed at multiple time points after dosing in all study groups.
# In addition, a rapid response was observed, assessed as reduction in CD63^+ expression on CCR3^+ basophils in an ex vivo anti-FcεR1 activation assay (FIG. 1-3). […] CD63^+ expression returned to baseline as plasma drug concentrations declined. […] The most common non-procedural AEs occurring in ≧2 subjects were headache (8% vs. 25% PLB), myalgia (6% vs. 8% PLB), and nasopharyngitis (6% vs. 0% PLB). […] No clinical significant findings in safety lab studies of ECGs were observed.
# [6] = system: CD63 expression on the surface of activated CCR3+ basophils; assay: Basophil activation, ex vivo anti-FcεR1 activation assay, healthy subjects; assay type: in vivo, human; conditions: single dose administration
# [7] = target: hERG channel current (Homo sapiens, UniProt Q12809); assay: In vitro hERG assay; conditions: hERG IC50 fit
# [8] = multiple doses for 2 weeks (n=36)
# Sequence of hERG channel current (Q12809 whole entry): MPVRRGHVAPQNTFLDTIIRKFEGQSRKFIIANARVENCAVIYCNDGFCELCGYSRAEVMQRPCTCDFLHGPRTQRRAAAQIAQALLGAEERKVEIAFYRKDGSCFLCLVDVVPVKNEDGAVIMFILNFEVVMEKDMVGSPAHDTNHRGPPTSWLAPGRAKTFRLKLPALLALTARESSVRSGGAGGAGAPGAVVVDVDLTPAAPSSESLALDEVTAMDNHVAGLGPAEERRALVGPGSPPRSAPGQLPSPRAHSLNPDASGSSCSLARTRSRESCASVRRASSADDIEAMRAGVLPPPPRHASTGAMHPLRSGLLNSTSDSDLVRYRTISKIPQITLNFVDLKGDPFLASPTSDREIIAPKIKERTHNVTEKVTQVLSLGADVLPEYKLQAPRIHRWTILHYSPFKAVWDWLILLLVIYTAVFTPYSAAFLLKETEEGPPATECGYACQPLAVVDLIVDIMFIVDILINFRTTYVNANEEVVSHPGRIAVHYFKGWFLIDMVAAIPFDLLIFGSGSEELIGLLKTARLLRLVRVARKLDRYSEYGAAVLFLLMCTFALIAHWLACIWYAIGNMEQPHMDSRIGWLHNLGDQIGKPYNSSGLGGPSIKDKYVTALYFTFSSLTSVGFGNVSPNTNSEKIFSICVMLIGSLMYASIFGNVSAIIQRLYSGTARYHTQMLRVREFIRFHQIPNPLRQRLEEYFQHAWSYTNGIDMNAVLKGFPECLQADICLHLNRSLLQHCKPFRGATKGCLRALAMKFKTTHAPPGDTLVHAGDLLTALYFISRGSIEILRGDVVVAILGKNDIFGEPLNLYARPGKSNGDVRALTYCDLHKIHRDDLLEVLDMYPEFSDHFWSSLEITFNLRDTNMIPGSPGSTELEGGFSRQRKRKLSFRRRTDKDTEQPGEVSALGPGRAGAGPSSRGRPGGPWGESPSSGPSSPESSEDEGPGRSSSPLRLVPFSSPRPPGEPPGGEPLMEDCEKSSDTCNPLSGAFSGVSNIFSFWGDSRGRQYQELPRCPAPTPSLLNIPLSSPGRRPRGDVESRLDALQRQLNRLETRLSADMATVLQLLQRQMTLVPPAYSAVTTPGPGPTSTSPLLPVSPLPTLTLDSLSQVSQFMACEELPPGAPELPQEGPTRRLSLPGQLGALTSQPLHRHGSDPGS
smiles,measurement,setting,value
C[C@H](Nc1ncnc2[nH]cnc12)c1cc2cccc(Cl)c2c(=O)n1-c1ccccc1 [Compound 292],EC50,[1],5 to 10 nM
same,distribution into rat tissues,[2],rapid and extensive
same,elimination of radiolabelled Compound 292 from tissues,[2]; majority of tissues without quantifiable radioactivity at 24 hr,rapid
same,adverse effect in micronucleus assay,[3],no direct adverse effect
same,increase of Cmax in the presence of ketoconazole,"[4]; DDI portion, 200 mg ql2h ketoconazole",approximately 66%
same,accumulation,[4]; following 14 days of Q12 h oral administration,less than 2 fold
same,dose dependence of exposure (Cmax and AUC),"[4]; healthy subjects, across the dose ranges evaluated",increased proportionally to dose; also recorded: dose-proportional pharmacokinetics
same,AUC(0-24),[4]; single dose 1 mg,149 (67) ng*hr/mL
same,AUC(0-24),[4]; single dose 2 mg,289 (43) ng*hr/mL
same,AUC(0-24),[4]; single dose 5 mg,733 (5) ng*hr/mL
same,AUC(0-24),[4]; single dose 10 mg,891 (14) ng*hr/mL
same,AUC(0-24),[4]; single dose 20 mg,2193 (16) ng*hr/mL
same,AUC(0-24),[4]; single dose 30 mg,3263 (38) ng*hr/mL
same,IgE,[5]; healthy subjects,No increases in IgE
same,QTcF at any assessment,"[5]; healthy subjects, serial ECGs",≤ 500 ms
same,tolerability,"[5]; healthy subjects, single doses up to 30 mg, multiple doses up to 10 mg daily for 14 days",well tolerated; also recorded: well-tolerated
same,"headache, subjects",[5]; [8],8%
same,"myalgia, subjects",[5]; [8],6%
same,"nasopharyngitis, subjects",[5]; [8],6%
same,dose at which maximal PD response was achieved,[6],5 mg
same,Hill coefficient,[7],1.3
